Reference: patent US20100129434A1, “COMPOSITIONS AND METHODS FOR THE TREATMENT OF MUCORMYCOSIS AND OTHER FUNGAL DISEASES” (priority 2006, published 2010)
In brackets after ≈: the same amount, converted by molar mass. Entries after “also recorded” stand apart in the source; their conditions may differ. Read-outs that look alike come from different tables or passages of the source.

How the values were obtained:
[1] = tested on: rFTR1; test: Expression analysis of the high affinity iron permease gene (rFTR1) by RT-PCR; format: cell-based, Rhizopus oryzae; conditions: R. oryzae 99-880 mycelia; 2 mM deferasirox plus 350 μM ferric chloride, 1 h at 37° C.
Method: R. oryzae 99-880 plugs taken from a confluent PDA plate were grown in potato dextrose broth overnight at 37° C. with shaking. Mycelia were collected aseptically and transferred to fresh PDB flasks containing 350 μM ferric chloride (to suppress the expression of rFTR1), 350 μM ferric chloride plus 2 mM deferasirox to test iron chelation, or 2 mM deferasirox plus 6 mM ferric chloride to supersaturate the added deferasirox. The flasks were incubated for 1 h at 37° C. with shaking. Mycelia were collected by filtration and ground in liquid nitrogen using mortar and pestle. Total RNA was extracted using RNeasy Plabt Mini™ kit (Qiagen®) with RLC buffer. The RNA was reverse-transcribed with oligo(dT) primer using the SuperScript™ First-Strand Synthesis System (Invitrogen®) to generate first-strand cDNA. The products were diluted and used in PCR to detect the expression of FTR1 of R. oryzae and 18 s rDNA gene. The sequences of the PCR primers are as follows: sense primer 5′-[…] -3′ and anti-sense primer 5′-[…] -3′ for rFTR1 to amplify of R. oryzae; and sense primer 5′-[…]′T′[…] -3′ and anti-sense primer 5′-[…] -3′ for 18 s rDNA gene. The PCR products were separated on a 2% agarose gel containing 0.1 μg/ml ethidium bromide. Both primer sets were designed to amplify a 400 by bands. […]

[2] = iron overloaded patients, cited from earlier work
[3] = tested on: Mucorales; test: Deferasirox susceptibilities of multiple clinical isolates of Mucorales (summary); format: cell-based
Method: Minimum inhibitory concentration (MIC) and minimum fungicidal concentration (MFC) were determined for deferasirox by the method of Espinel-Ingroff using R. oryzae spores starved for iron (Espinel-Ingroff, (2001), supra). Cidality was defined as a <4-fold difference between MIC and MFC.
We next determined the deferasirox susceptibilities of multiple clinical isolates of Mucorales (Table 3). The MIC9OS of deferasirox against Mucor, non-oryzae Rhizopus spp., and R. oryzae were 3.12 to 6.25 μg/ml. MFCs were similar to MICs, and deferasirox was cidal for 28/29 (97%) of isolates. Of note, slight growth was seen within the first twelve hours even at extremely high concentrations of deferasirox. […] Furthermore, the MICs and MFCs of deferasirox against these isolates were well below clinically achievable peak (˜38 μg/ml) and trough serum levels (˜17 μg/ml) of the drug at steady state when administered at the FDA-approved starting dose (20 mg/kg/d).

O=C(O)c1ccc(-n2nc(-c3ccccc3O)nc2-c2ccccc2O)cc1 [Deferasirox, 4-[3,5-Bis(2-hydroxyphenyl)-1H-1,2,4-triazol-1-yl]-benzoic acid]
rFTR1 gene expression (RT-PCR) [1]: expressed; also recorded: induces rFTR1 gene expression | tolerability ([2]; chronic dosing over months to years, up to 30 mg/kg/d): very well tolerated | tolerability ([2]; up to 40 mg/kg/d for up to 12 days): very well tolerated | isolates for which deferasirox was cidal ([3]; 28/29 isolates): 97% | MIC ([3]; Rhizopus arrhizus, read-out: MIC90s against Mucor, non-oryzae Rhizopus spp., and R. oryzae): 3.12 to 6.25 µg/mL (≈ 8.36 to 16.7 µM) | dependence of cidality ([3]; slight growth within first twelve hours, fungi dead by 24 hours): time-dependent, rather than concentration-dependent
